ChEMBL document CHEMBL1130941, “Comparison of the intrinsic kinase activity and substrate specificity of c-Abl and Bcr-Abl” (Bioorg Med Chem Lett, 1998)
Peptide text beside a SMILES is read from it.

Assays:
[1] = target: T1, Bcr/Abl fusion protein (Homo sapiens) (UniProt P00519+P11274); test: Ratio of peptide phosphorylation by Bcr-Abl and c-Abl protein tyrosine kinases; assay type: protein assay
[2] = target: Tyrosine-protein kinase ABL1 (Homo sapiens) (UniProt P00519); test: Peptide phosphorylation by c-Abl protein tyrosine kinase at 25 degree for 30 min in a cell-free system
[3] = target: T1, Bcr/Abl fusion protein (Homo sapiens); test: Peptide phosphorylation by Bcr-Abl protein tyrosine kinase at 25 degree for 30 min in a cell-free system; assay type: protein assay
[4] = target: T1, Bcr/Abl fusion protein (Homo sapiens); test: Vmax/Km value for peptide phosphorylation by Bcr-Abl protein tyrosine kinase; assay type: protein assay
[5] = target: Tyrosine-protein kinase ABL1 (Homo sapiens) (UniProt P00519); test: Vmax/Km value for peptide phosphorylation by c-Abl protein tyrosine kinase
[6] = test system: CC[C@H](C)[C@H](NC(=O)[C@H](CCC(=O)O)NC(=O)[C@H](CC(=O)O)NC(=O)[C@H](Cc1ccc(O)cc1)NC(=O)[C@@H](NC(=O)[C@H](CCC(=O)O)NC(=O)[C@@H](N)CCC(=O)O)[C@@H](C)CC)C(=O)N[C@@H](Cc1ccc(O)cc1)C(=O)O; test: (§1) Km value for peptide phosphorylation by Bcr-Abl protein tyrosine kinase; assay type: protein assay
[7] = test system: CC[C@H](C)[C@H](NC(=O)[C@H](CCC(=O)O)NC(=O)[C@@H](N)CCC(=O)O)C(=O)N[C@@H](Cc1ccc(O)cc1)C(=O)N[C@@H](Cc1ccc(O)cc1)C(=O)N[C@@H](Cc1ccc(O)cc1)C(=O)N[C@H](C(=O)N[C@@H](Cc1c[nH]cn1)C(=O)O)C(C)C; test: as §1; assay type: protein assay
[8] = test system: CC[C@H](C)[C@H](NC(=O)[C@H](CCCN=C(N)N)NC(=O)[C@@H](N)CCC(=O)O)C(=O)N[C@@H](Cc1ccc(O)cc1)C(=O)N[C@@H](C)C(=O)N[C@@H](CCCN=C(N)N)C(=O)N[C@H](C(=O)N[C@@H](CCCCN)C(=O)O)[C@@H](C)O; test: as §1; assay type: protein assay
[9] = test system: CC[C@H](C)[C@H](NC(=O)[C@H](CCC(=O)O)NC(=O)[C@@H](N)CCC(=O)O)C(=O)N[C@@H](Cc1ccc(O)cc1)C(=O)N[C@@H](CC(=O)O)C(=O)N[C@@H](Cc1ccc(O)cc1)C(=O)N[C@@H](C)C(=O)N[C@@H](Cc1ccc(O)cc1)C(=O)O; test: as §1; assay type: protein assay
[10] = test system: CC[C@H](C)[C@H](NC(=O)[C@H](CCC(=O)O)NC(=O)[C@@H](N)CCC(=O)O)C(=O)N[C@@H](Cc1ccc(O)cc1)C(=O)N[C@@H](CCC(=O)O)C(=O)N[C@@H](CCC(=O)O)C(=O)N1CCC[C@H]1C(=O)N[C@@H](Cc1ccc(O)cc1)C(=O)O; test: as §1; assay type: protein assay
[11] = test system: CC[C@H](C)[C@H](NC(=O)[C@H](CCC(=O)O)NC(=O)[C@@H](N)CCC(=O)O)C(=O)N[C@@H](Cc1ccc(O)cc1)C(=O)N[C@@H](C)C(=O)N[C@@H](CCC(=O)O)C(=O)N[C@@H](Cc1c[nH]c2ccccc12)C(=O)N[C@@H](Cc1ccccc1)C(=O)O; test: as §1; assay type: protein assay
[12] = test system: CC[C@H](C)[C@H](NC(=O)[C@H](CCC(=O)O)NC(=O)[C@H](CC(=O)O)NC(=O)[C@H](Cc1ccc(O)cc1)NC(=O)[C@@H](NC(=O)[C@H](CCC(=O)O)NC(=O)[C@@H](N)CCC(=O)O)[C@@H](C)CC)C(=O)N[C@@H](Cc1ccc(O)cc1)C(=O)O; test: (§2) Vmax value for peptide phosphorylation by Bcr-Abl protein tyrosine kinase; assay type: protein assay
[13] = test system: CC[C@H](C)[C@H](NC(=O)[C@H](CCC(=O)O)NC(=O)[C@@H](N)CCC(=O)O)C(=O)N[C@@H](Cc1ccc(O)cc1)C(=O)N[C@@H](Cc1ccc(O)cc1)C(=O)N[C@@H](Cc1ccc(O)cc1)C(=O)N[C@H](C(=O)N[C@@H](Cc1c[nH]cn1)C(=O)O)C(C)C; test: as §2; assay type: protein assay
[14] = test system: CC[C@H](C)[C@H](NC(=O)[C@H](CCCN=C(N)N)NC(=O)[C@@H](N)CCC(=O)O)C(=O)N[C@@H](Cc1ccc(O)cc1)C(=O)N[C@@H](C)C(=O)N[C@@H](CCCN=C(N)N)C(=O)N[C@H](C(=O)N[C@@H](CCCCN)C(=O)O)[C@@H](C)O; test: as §2; assay type: protein assay
[15] = test system: CC[C@H](C)[C@H](NC(=O)[C@H](CCC(=O)O)NC(=O)[C@@H](N)CCC(=O)O)C(=O)N[C@@H](Cc1ccc(O)cc1)C(=O)N[C@@H](CC(=O)O)C(=O)N[C@@H](Cc1ccc(O)cc1)C(=O)N[C@@H](C)C(=O)N[C@@H](Cc1ccc(O)cc1)C(=O)O; test: as §2; assay type: protein assay
[16] = test system: CC[C@H](C)[C@H](NC(=O)[C@H](CCC(=O)O)NC(=O)[C@@H](N)CCC(=O)O)C(=O)N[C@@H](Cc1ccc(O)cc1)C(=O)N[C@@H](CCC(=O)O)C(=O)N[C@@H](CCC(=O)O)C(=O)N1CCC[C@H]1C(=O)N[C@@H](Cc1ccc(O)cc1)C(=O)O; test: as §2; assay type: protein assay
[17] = test system: CC[C@H](C)[C@H](NC(=O)[C@H](CCC(=O)O)NC(=O)[C@@H](N)CCC(=O)O)C(=O)N[C@@H](Cc1ccc(O)cc1)C(=O)N[C@@H](C)C(=O)N[C@@H](CCC(=O)O)C(=O)N[C@@H](Cc1c[nH]c2ccccc12)C(=O)N[C@@H](Cc1ccccc1)C(=O)O; test: as §2; assay type: protein assay

Sequence of Bcr/Abl fusion protein (Homo sapiens) (from UniProt P00519+P11274) (P11274 whole entry, looked up, the tested form may be a part): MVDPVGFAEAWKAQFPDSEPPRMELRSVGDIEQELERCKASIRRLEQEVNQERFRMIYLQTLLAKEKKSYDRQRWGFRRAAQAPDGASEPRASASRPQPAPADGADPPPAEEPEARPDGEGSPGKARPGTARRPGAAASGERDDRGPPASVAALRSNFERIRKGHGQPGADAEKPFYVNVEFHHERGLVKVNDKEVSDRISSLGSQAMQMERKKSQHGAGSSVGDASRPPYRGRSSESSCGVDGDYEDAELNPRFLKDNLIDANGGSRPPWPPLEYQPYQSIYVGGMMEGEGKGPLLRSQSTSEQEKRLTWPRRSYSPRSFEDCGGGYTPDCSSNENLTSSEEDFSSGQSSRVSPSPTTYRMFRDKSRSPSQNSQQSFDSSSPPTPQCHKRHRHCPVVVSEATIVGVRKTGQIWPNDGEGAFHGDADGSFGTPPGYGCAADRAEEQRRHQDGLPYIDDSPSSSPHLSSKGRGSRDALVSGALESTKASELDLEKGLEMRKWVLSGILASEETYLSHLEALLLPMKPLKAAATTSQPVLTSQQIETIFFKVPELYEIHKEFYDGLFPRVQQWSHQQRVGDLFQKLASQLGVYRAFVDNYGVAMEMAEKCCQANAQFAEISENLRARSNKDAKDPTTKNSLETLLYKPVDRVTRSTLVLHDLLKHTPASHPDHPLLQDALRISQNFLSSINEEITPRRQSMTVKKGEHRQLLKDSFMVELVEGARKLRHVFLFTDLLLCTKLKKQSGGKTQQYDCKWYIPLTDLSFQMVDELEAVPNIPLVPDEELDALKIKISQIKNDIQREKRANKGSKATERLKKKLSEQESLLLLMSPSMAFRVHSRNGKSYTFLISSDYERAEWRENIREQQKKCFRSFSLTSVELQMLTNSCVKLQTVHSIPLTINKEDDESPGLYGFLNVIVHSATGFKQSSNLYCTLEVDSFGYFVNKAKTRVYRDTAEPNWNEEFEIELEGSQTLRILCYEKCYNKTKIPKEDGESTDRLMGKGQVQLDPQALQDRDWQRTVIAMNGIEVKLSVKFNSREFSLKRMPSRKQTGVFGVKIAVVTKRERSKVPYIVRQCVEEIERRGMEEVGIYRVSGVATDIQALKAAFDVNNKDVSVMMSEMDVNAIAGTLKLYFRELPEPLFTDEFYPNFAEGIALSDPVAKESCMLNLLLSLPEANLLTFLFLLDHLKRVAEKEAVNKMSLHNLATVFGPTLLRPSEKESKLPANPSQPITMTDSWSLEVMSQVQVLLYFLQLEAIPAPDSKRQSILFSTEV
Sequence of Bcr/Abl fusion protein (Homo sapiens) (from UniProt P00519+P11274) (P00519 whole entry, looked up, the tested form may be a part): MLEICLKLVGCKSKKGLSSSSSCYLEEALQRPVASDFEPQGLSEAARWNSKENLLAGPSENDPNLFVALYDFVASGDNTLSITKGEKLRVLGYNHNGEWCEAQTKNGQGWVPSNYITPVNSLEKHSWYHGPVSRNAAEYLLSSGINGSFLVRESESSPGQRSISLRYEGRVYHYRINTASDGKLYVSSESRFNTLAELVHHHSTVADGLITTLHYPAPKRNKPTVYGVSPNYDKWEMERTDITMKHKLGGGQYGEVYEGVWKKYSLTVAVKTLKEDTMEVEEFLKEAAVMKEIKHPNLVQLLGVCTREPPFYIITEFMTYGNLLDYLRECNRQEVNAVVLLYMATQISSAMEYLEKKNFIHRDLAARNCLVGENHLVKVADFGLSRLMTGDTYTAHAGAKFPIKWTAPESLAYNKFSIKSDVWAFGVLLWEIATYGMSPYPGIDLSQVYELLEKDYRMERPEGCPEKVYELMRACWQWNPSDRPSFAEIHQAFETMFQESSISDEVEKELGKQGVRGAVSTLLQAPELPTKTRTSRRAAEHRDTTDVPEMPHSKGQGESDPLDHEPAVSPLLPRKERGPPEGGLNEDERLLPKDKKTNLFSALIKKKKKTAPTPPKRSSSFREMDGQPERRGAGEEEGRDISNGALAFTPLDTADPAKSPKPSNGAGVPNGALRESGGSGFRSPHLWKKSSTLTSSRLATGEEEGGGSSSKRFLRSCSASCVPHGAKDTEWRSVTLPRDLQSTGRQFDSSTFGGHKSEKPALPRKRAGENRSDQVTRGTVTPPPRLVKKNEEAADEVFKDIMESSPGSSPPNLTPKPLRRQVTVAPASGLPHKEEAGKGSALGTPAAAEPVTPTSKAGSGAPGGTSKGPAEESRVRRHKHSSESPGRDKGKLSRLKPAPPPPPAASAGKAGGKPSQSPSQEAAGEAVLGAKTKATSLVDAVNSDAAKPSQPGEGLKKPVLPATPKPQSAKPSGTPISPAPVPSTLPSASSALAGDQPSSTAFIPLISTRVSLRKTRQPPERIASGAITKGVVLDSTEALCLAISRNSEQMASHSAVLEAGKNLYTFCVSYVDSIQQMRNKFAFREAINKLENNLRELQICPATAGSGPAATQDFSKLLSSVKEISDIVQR
T1 sequence (P00519 whole entry, looked up, the tested form may be a part): as above
T1 sequence (P11274 whole entry, looked up, the tested form may be a part): as the sequence (P11274 whole entry, looked up, the tested form may be a part) above
Sequence of Tyrosine-protein kinase ABL1 (Homo sapiens) (P00519 whole entry, the tested form may be a part): as the sequence (P00519 whole entry, looked up, the tested form may be a part) above

| Compound | Ratio [1] | Activity [2] [pmol] | Activity [3] [pM] | Vmax / Km (10^-9 L min-1) [4] | Vmax / Km (10^-9 L min-1) [5] | other results |
| --- | --- | --- | --- | --- | --- | --- |
| CC[C@H](C)[C@H](NC(=O)[C@H](CCC(=O)O)NC(=O)[C@H](Cc1ccc(O)cc1)NC(=O)[C@@H](NC(=O)[C@H](CC(=O)O)NC(=O)[C@@H](N)CC(=O)O)[C@@H](C)CC)C(=O)N[C@@H](Cc1ccc(O)cc1)C(=O)N[C@@H](Cc1c[nH]c2ccccc12)C(=O)O (H-DDIYEIYW-OH) | 4.92 | 0.88 | 4.35 |  |  |  |
| CC[C@H](C)[C@H](NC(=O)[C@H](CCC(=O)O)NC(=O)[C@@H](N)CCC(=O)O)C(=O)N[C@@H](Cc1ccc(O)cc1)C(=O)N[C@@H](C)C(=O)N[C@@H](CCC(=O)O)C(=O)N[C@@H](Cc1c[nH]c2ccccc12)C(=O)N[C@@H](Cc1ccccc1)C(=O)O (H-EEIYAEWF-OH) | 3.98 | 5.69 | 22.6 | 97.6 | 14 |  |
| CC[C@H](C)[C@H](NC(=O)[C@H](CCC(=O)O)NC(=O)[C@H](CC(=O)O)NC(=O)[C@H](Cc1ccc(O)cc1)NC(=O)[C@@H](NC(=O)[C@H](CCC(=O)O)NC(=O)[C@@H](N)CCC(=O)O)[C@@H](C)CC)C(=O)N[C@@H](Cc1ccc(O)cc1)C(=O)O (H-EEIYDEIY-OH) | 3.44 | 4.18 | 14.4 | 17.1 | 3.75 |  |
| CC[C@H](C)[C@H](NC(=O)[C@H](CCC(=O)O)NC(=O)[C@@H](N)CCC(=O)O)C(=O)N[C@@H](Cc1ccc(O)cc1)C(=O)N[C@@H](CC(=O)O)C(=O)N[C@@H](Cc1ccc(O)cc1)C(=O)N[C@@H](C)C(=O)N[C@@H](Cc1ccc(O)cc1)C(=O)O (H-EEIYDYAY-OH) | 3.33 | 6.73 | 22.4 | 56.4 | 7.46 |  |
| CC[C@H](C)[C@H](NC(=O)[C@H](CCC(=O)O)NC(=O)[C@@H](N)CCC(=O)O)C(=O)N[C@@H](Cc1ccc(O)cc1)C(=O)N[C@@H](CCC(=O)O)C(=O)N[C@@H](CCC(=O)O)C(=O)N1CCC[C@H]1C(=O)N[C@@H](Cc1ccc(O)cc1)C(=O)O (H-EEIYEEPY-OH) | 3.38 | 7.56 | 25.5 | 98.8 | 12.1 |  |
| CC[C@H](C)[C@H](NC(=O)[C@H](CCC(=O)O)NC(=O)[C@@H](N)CCC(=O)O)C(=O)N[C@@H](Cc1ccc(O)cc1)C(=O)N[C@@H](Cc1ccc(O)cc1)C(=O)N[C@@H](Cc1ccc(O)cc1)C(=O)N[C@@H](CCC(=O)O)C(=O)N[C@@H](CC(C)C)C(=O)O (H-EEIYYYEL-OH) | 3.52 | 1.27 | 4.48 |  |  |  |
| CC[C@H](C)[C@H](NC(=O)[C@H](CCC(=O)O)NC(=O)[C@@H](N)CCC(=O)O)C(=O)N[C@@H](Cc1ccc(O)cc1)C(=O)N[C@@H](Cc1ccc(O)cc1)C(=O)N[C@@H](Cc1ccc(O)cc1)C(=O)N[C@H](C(=O)N[C@@H](Cc1c[nH]cn1)C(=O)O)C(C)C (H-EEIYYYVH-OH) | 5.24 | 3.37 | 17.7 | 32.9 | 2.38 |  |
| CC[C@H](C)[C@H](NC(=O)[C@H](Cc1c[nH]cn1)NC(=O)[C@@H](N)CCC(=O)O)C(=O)N[C@@H](Cc1ccc(O)cc1)C(=O)N[C@@H](Cc1c[nH]cn1)C(=O)N[C@@H](CCCN=C(N)N)C(=O)N[C@@H](Cc1c[nH]cn1)C(=O)N[C@@H](CCSC)C(=O)O (H-EHIYHRHM-OH) | 8.27 | 0.33 | 2.73 |  |  |  |
| CC[C@H](C)[C@H](NC(=O)[C@H](CCCN=C(N)N)NC(=O)[C@@H](N)CCC(=O)O)C(=O)N[C@@H](Cc1ccc(O)cc1)C(=O)N[C@@H](C)C(=O)N[C@@H](CCCN=C(N)N)C(=O)N[C@H](C(=O)N[C@@H](CCCCN)C(=O)O)[C@@H](C)O (H-ERIYARTK-OH) | 6.79 | 3.37 | 22.9 | 42.2 | 2.47 |  |
| CC[C@H](C)[C@H](NC(=O)[C@H](CCCN=C(N)N)NC(=O)[C@@H](N)CC(C)C)C(=O)N[C@@H](Cc1ccc(O)cc1)C(=O)N[C@@H](CCC(=O)O)C(=O)N[C@@H](CCCN=C(N)N)C(=O)N1CCC[C@H]1C(=O)N[C@@H](CCCN=C(N)N)C(=O)O (H-LRIYERPR-OH) | 8.73 | 1.23 | 10.7 |  |  |  |
| CC[C@H](C)[C@H](NC(=O)[C@H](CCCN=C(N)N)NC(=O)[C@@H]1CCCN1)C(=O)N[C@@H](Cc1ccc(O)cc1)C(=O)N[C@@H](CC(=O)O)C(=O)N[C@H](C(=O)N1CCC[C@H]1C(=O)N[C@@H](Cc1ccc(O)cc1)C(=O)O)[C@@H](C)CC (H-PRIYDIPY-OH) | 5.97 | 1.59 | 9.5 |  |  |  |
| CC[C@H](C)[C@H](NC(=O)[C@H](Cc1ccc(O)cc1)NC(=O)[C@H](CC(=O)O)NC(=O)[C@H](Cc1ccc(O)cc1)NC(=O)[C@@H](NC(=O)[C@H](CCC(=O)O)NC(=O)[C@@H](N)Cc1ccc(O)cc1)[C@@H](C)CC)C(=O)N[C@@H](CCC(=O)O)C(=O)O (H-YEIYDYIE-OH) | 2.29 | 1.89 | 4.33 |  |  |  |
| CC[C@H](C)[C@H](NC(=O)[C@H](CCC(=O)O)NC(=O)[C@@H](N)Cc1ccc(O)cc1)C(=O)N[C@@H](Cc1ccc(O)cc1)C(=O)N[C@@H](CC(=O)O)C(=O)N[C@@H](Cc1ccc(O)cc1)C(=O)N[C@@H](Cc1ccc(O)cc1)C(=O)N[C@H](C(=O)O)C(C)C (H-YEIYDYYV-OH) | 2.91 | 2.71 | 7.89 |  |  |  |
| Bcr/Abl fusion protein (Homo sapiens) (from UniProt P00519+P11274) |  |  |  |  |  | Km [6]: 439 µM; Km [7]: 141 µM; Km [8]: 121 µM; Km [9]: 130 µM; Km [10]: 106 µM; Km [11]: 54 µM; Vmax [12]: 7.5 pmol/min; Vmax [13]: 4.64 pmol/min; Vmax [14]: 5.1 pmol/min; Vmax [15]: 7.33 pmol/min; Vmax [16]: 10.5 pmol/min; Vmax [17]: 5.27 pmol/min |
